Assay results taken from US20130012473A1, “COMBINED USE OF PHOSPHOLIPID AND SULFATE GROUPS-CARRYING POLYSACCHARIDES FOR INHIBITING METASTATIC SPREAD” (KTB TUMORFORSCHUNGSGESELLSCHAFT MBH, priority 2010, published 2013).

Experiments:
[1] = test system: B16.F10 ELN melanoma cells; assay: In vivo bioluminescence imaging of metastatic spread; design: species or system mouse; details: measured once weekly
Description: Metastatic spread was also measured once weekly by in vivo bioluminescence as described previously (Jantscheff, P. et al., Prostate 69:1151-1163 (2009)). Overlays of in vivo images and mouse photographs allowed to localize the metastatic lesions in lung and at the injection sites (D: black arrows) even in late images (D: day 14).

B16.F10 melanoma cells = assay: Removal of exogenous LysoPC from the medium (PC/LysoPC and free choline assays); format: cell-based, mouse; details: in absence of the cells
Description: Cell culture and LysoPC feeding: Mouse melanoma cell line B16.F10 (ATCC, CRL-6475) was passaged in vitro in DMEM as described before (Fritzsche, J. et al., Thromb. Haemost. 100:1166-1175 (2008)). Cells were routinely (monthly) tested to be negative of mycoplasms, their morphological appearance observed by microscopic means and examined for the expression of adhesion receptors and ligands by flow cytometry. LysoPC removal (1-Heptadecanoyl-2-hydroxy-sn-glycero-3-phosphocholine, (C17:0; HEP-LysoPC), Avanti Polar Lipids, Inc., or 1-Hexadecanoyl-sn-glycero-3-phosphocholine, (C16:0; HEX-LysoPC), Sigma, Taufkirchen, Germany was determined using 1×10^5 cells in 24-well tissue culture plates (Greiner BioOne, Frickenhausen, Germany). Non-cytotoxic LysoPC/BSA DMEM-solutions (FIG. 7 A) were prepared by adding 20-40 mg/ml bovine serum albumine (BSA, PAA Laboratories GmbH, Cölbe, Germany). Cell culture supernatants were collected from triplicates of LysoPC treated and untreated control wells. Cells were removed from tissue culture plates using trypsin/EDTA. […]
Determination of LysoPC concentration: LysoPC concentration was determined by an enzymatic PL (PC/LysoPC) assay containing phospholipase D and choline oxidase (mti diagnostics GmbH, Idstein, Germany). […]
B, C and D) Colorimetric assays for the quantification of LysoPC removal from the supernatant of B16.F10. […]

CCCCCCCCCCCCCCCCC(=O)OC[C@@H](O)COP(=O)([O-])OCC[N+](C)(C)C [LysoPC]
quantification of metastatic spread by in vivo bioluminescence, differences LysoPC-treated vs untreated [1]: could not confirm | LysoPC concentration in culture medium (B16.F10 melanoma cells): not changed in absence of the cells
